Target: NAT (N-acetyltransferase)
Experiment: Kd measurement (Fig. S8, method not shown); fluorescence titration and 1H NMR of acetylation by NAT

Kd: 2230 nM
Compound: COc1ccc2c(c1)c(CC(=O)NCCCCN1C(=O)c3cccc4cc(N)cc(c34)C1=O)c(C)n2C(=O)c1ccc(Cl)cc1 [3IAN4]
